From paper PMC5908784, “Extracellular loops 2 and 3 of the calcitonin receptor selectively modify agonist binding and efficacy” (Biochemical Pharmacology, 2018)
Where a chain is given by its changes, count along the chain named. Where a SMILES comes first, the peptide text is derived from it. Bridges are numbered along the chain shown (N, C = ends).

Tests used:
Experiment in all cases: Heterologous whole cell competition binding
Conditions in all cases: heterologous competition of 125I-sCT(8-32), whole cells, mean ± S.E.M., SEM
[1] = target: T1, hCTR N365A (Homo sapiens, UniProt P30988, N365A)
T1 construct: c-Myc (N); expressed in transfected cells
T1 sequence (P30988 25-474 N365A): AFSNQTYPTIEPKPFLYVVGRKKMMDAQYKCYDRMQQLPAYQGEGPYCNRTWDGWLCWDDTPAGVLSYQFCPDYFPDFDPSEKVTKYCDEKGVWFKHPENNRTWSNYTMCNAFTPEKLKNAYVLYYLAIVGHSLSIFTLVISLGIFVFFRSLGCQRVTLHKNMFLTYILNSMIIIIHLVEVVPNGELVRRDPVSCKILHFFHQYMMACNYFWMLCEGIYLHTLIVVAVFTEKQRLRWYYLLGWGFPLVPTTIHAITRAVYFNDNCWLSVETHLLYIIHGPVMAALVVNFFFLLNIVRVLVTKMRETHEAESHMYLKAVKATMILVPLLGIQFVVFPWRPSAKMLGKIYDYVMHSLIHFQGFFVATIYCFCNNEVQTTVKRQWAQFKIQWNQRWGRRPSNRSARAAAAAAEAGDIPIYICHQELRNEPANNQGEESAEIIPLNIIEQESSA
Summary of the method: (§1)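 Reported pKi values come from whole-cell displacement of a radiolabelled tracer, incubated overnight and quantified by gamma counting after washing out free ligand, with correction for tracer occupancy (Cheng-Prusoff).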

[2] = target: T2, hCTR F359A (Homo sapiens, UniProt P30988, F359A)
T2 construct: expressed in transfected cells
T2 sequence (P30988 25-474 F359A): T1 sequence (P30988 25-474 N365A) with F335A, A341N
Summary of the method: as §1

[3] = target: T3, hCTR M376A (Homo sapiens, UniProt P30988, M376A)
T3 construct: c-Myc (N); expressed in transfected cells
T3 sequence (P30988 25-474 M376A): T1 sequence (P30988 25-474 N365A) with A341N, M352A
Summary of the method: as §1

[4] = target: T4, hCTR V357A (Homo sapiens, UniProt P30988, V357A)
T4 construct: c-Myc (N); expressed in transfected cells
T4 sequence (P30988 25-474 V357A): T1 sequence (P30988 25-474 N365A) with V333A, A341N
Summary of the method: as §1

[5] = target: T5, hCTR L297A (Homo sapiens, UniProt P30988, L297A)
T5 construct: c-Myc (N); expressed in transfected cells
T5 sequence (P30988 25-474 L297A): T1 sequence (P30988 25-474 N365A) with L273A, A341N
Summary of the method: as §1

- Ki [1]: 2.09 nM
- Ki [2]: 74.1 nM
- Ki [3]: 7.76 nM
- Ki [4]: 12.9 nM
- Ki [5]: 15.5 nM
SMILES: CSCC[C@H](NC(=O)CNC(=O)[C@H](CO)NC(=O)[C@H](Cc1ccccc1)NC(=O)[C@H](CCCNC(=N)N)NC(=O)[C@H](Cc1c[nH]cn1)NC(=O)[C@H](Cc1ccccc1)NC(=O)[C@H](CC(N)=O)NC(=O)[C@H](CC(N)=O)NC(=O)[C@H](CC(C)C)NC(=O)[C@H](CC(N)=O)NC(=O)[C@H](CCCNC(=N)N)NC(=O)[C@H](Cc1c[nH]c2ccccc12)NC(=O)[C@H](Cc1ccc(O)cc1)NC(=O)[C@H](C)NC(=O)[C@H](CO)NC(=O)[C@H](CC(C)C)NC(=O)[C@@H](NC(=O)[C@@H]1CSSC[C@H](N)C(=O)N[C@@H](CO)C(=O)N[C@@H](CC(N)=O)C(=O)N[C@@H](CC(C)C)C(=O)N[C@@H](CO)C(=O)N[C@@H]([C@@H](C)O)C(=O)N1)C(C)C)C(=O)NCC(=O)N[C@@H](Cc1ccccc1)C(=O)NCC(=O)N1CCC[C@H]1C(=O)N[C@@H](CCC(=O)O)C(=O)N[C@H](C(=O)N1CCC[C@H]1C(N)=O)[C@@H](C)O [pCT] (H-CSNLSTCVLSAYWRNLNNFHRFSGMGFGPETP-NH2; disulfide 1-7)
